Literature values, collected in patent US20140275235A1, “Treatment of Proliferative Disorders” (priority 2013, published 2014).

Conditions: literature refs 11, 12

C[S+]([O-])CCCCN=C=S (centres unmarked) [SFN, sulforaphane]
Bioavailability: 80% | Time to peak plasma levels: ≤ 2 h
